The source of these data is patent publication US20250222146A1, “Radiopharmaceuticals Targeting Somatostatin Receptor 2 and Uses Thereof” (RayzeBio, Inc., priority 2023, published 2025).

In this assay the target is SSTR2 (Homo sapiens, UniProt P30874). Put plainly: SSTR binding affinity by radioligand binding competition assay ([125I]-Tyr11-Somatostatin, membrane extracts). The conditions noted are these: radioligand competition, [125I]-Tyr11-Somatostatin 0.1 nM, membrane extracts; Ki from IC50 by Cheng Prusoff; read-out: SSTR2 Ki. For orientation: In a radioligand displacement assay an active substance lowers the binding of a labelled ligand.

Structures are written as SMILES. Numbered stars: 1 amine (or outer) side, 2 acyl side, 3 side chain; on linkers, the order of the positions; unused ones are H or OH. Square brackets hold non-standard residues; d marks the D form. Peptide text beside a SMILES is read from it. * marks the point of attachment. DOTA(Lu)NH(CH2)6NHCOCH2 = O=C(CN1CCN2CCN3CCN(CC1)CC(=O)[O][Lu]([O]C(=O)C2)[O]C(=O)C3)NCCCCCCNC(=O)C*; X6 = O=C(CN1CCN2CCN3CCN(CC1)CC(=O)[O][Lu]([O]C(=O)C2)[O]C(=O)C3)NCCOCCOCCOCCNC(=O)C*; Ala(piperidin-4-yl) = O=C([C@H](CC1CCN([*:3])CC1)N[*:1])[*:2]; dTrp(βS-Me) = C[C@@H](c1c[nH]c2ccccc12)[C@@H](N)C(=O)O; Gly(piperidin-4-yl) = N[C@H](C(=O)O)C1CCNCC1; X25 = O=C([C@H](CC1CNC1)N[*:1])[*:2]; 4Pal = N[C@@H](Cc1ccncc1)C(=O)O; Gly(cPr) = N[C@H](C(=O)O)C1CC1; NMehCys = CN[C@@H](CCS)C(=O)O; Phg = N[C@H](C(=O)O)c1ccccc1 A value given as a limit tells only on which side of the number the result lay.

SSTR2, sequence (P30874 whole entry): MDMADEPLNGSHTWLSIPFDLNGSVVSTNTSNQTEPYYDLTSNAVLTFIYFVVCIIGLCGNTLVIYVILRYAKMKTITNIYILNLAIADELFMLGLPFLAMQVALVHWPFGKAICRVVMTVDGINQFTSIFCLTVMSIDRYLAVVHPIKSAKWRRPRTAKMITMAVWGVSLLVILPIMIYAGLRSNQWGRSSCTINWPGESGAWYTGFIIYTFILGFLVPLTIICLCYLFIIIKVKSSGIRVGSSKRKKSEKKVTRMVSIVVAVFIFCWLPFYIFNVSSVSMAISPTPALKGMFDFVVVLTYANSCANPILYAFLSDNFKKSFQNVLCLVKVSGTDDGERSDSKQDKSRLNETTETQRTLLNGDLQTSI

As usually defined, the Ki is a measure of affinity in units of concentration, obtained from inhibition or displacement. As to `C[C@@H](O)[C@@H]1NC(=O)[C@H](CCCCN)NC(=O)[C@@H](Cc2c[nH]c3ccccc23)NC(=O)[C@H](Cc2ccc(O)cc2)NC(=O)[C@H](CCSCC(=O)NCCCCCCNC(=O)CN2CCN3CCN4CCN(CC2)CC(=O)[O][Lu]([O]C(=O)C3)[O]C(=O)C4)N(C)C(=O)[C@H](c2ccccc2)NC1=O` [RB-0004821] (cyclo(KT[Phg][NMehCys](DOTA(Lu)NH(CH2)6NHCOCH2)Y[dW])), the Ki is 1 to 3.33 nM. Take `CC(C)[C@@H]1NC(=O)[C@H](CCCCN)NC(=O)[C@@H](Cc2c[nH]c3ccccc23)NC(=O)[C@H](Cc2ccc(O)cc2)NC(=O)[C@H](CCSCC(=O)NCCOCCOCCOCCNC(=O)CN2CCN3CCN4CCN(CC2)CC(=O)[O][Lu]([O]C(=O)C3)[O]C(=O)C4)N(C)C(=O)[C@H](Cc2ccccc2)NC1=O` [RB-0004823] (cyclo(F[NMehCys](X6)Y[dW]KV)): the inhibitory constant (Ki) was below 1 nM.

Turning to `CC(C)[C@@H]1NC(=O)[C@H](CCCCN)NC(=O)[C@@H]([C@@H](C)c2c[nH]c3ccccc23)NC(=O)[C@H](Cc2ccncc2)NC(=O)[C@H](CCSCC(=O)NCCCCCCNC(=O)CN2CCN3CCN4CCN(CC2)CC(=O)[O][Lu]([O]C(=O)C3)[O]C(=O)C4)N(C)C(=O)[C@H](Cc2ccccc2)NC1=O` [RB-0004825] (cyclo([4Pal][dTrp(βS-Me)]KVF[NMehCys](DOTA(Lu)NH(CH2)6NHCOCH2))), the Ki was below 1 nM.

For `C[C@@H](O)[C@@H]1NC(=O)[C@H](CC2CCNCC2)NC(=O)[C@@H](Cc2c[nH]c3ccccc23)NC(=O)[C@H](Cc2ccc(O)cc2)NC(=O)[C@H](CCSCC(=O)NCCCCCCNC(=O)CN2CCN3CCN4CCN(CC2)CC(=O)[O][Lu]([O]C(=O)C3)[O]C(=O)C4)N(C)C(=O)[C@H](Cc2ccccc2)NC1=O` [RB-0004864] (cyclo(F[NMehCys](DOTA(Lu)NH(CH2)6NHCOCH2)Y[dW][Ala(piperidin-4-yl)]T)), the Ki lay in the range of 1 to 3.33 nM.

As to `C[C@@H](O)[C@@H]1NC(=O)[C@H](CC2CNC2)NC(=O)[C@@H](Cc2c[nH]c3ccccc23)NC(=O)[C@H](Cc2ccc(O)cc2)NC(=O)[C@H](CCSCC(=O)NCCCCCCNC(=O)CN2CCN3CCN4CCN(CC2)CC(=O)[O][Lu]([O]C(=O)C3)[O]C(=O)C4)N(C)C(=O)[C@H](Cc2ccccc2)NC1=O` [RB-0004866] (cyclo(F[NMehCys](DOTA(Lu)NH(CH2)6NHCOCH2)Y[dW][X25]T)), the Ki was 10 to 33.3 nM.

Turning to `C[C@@H](O)[C@@H]1NC(=O)[C@H](C2CCNCC2)NC(=O)[C@@H](Cc2c[nH]c3ccccc23)NC(=O)[C@H](Cc2ccc(O)cc2)NC(=O)[C@H](CCSCC(=O)NCCCCCCNC(=O)CN2CCN3CCN4CCN(CC2)CC(=O)[O][Lu]([O]C(=O)C3)[O]C(=O)C4)N(C)C(=O)[C@H](Cc2ccccc2)NC1=O` [RB-0004868] (cyclo(F[NMehCys](DOTA(Lu)NH(CH2)6NHCOCH2)Y[dW][Gly(piperidin-4-yl)]T)), the Ki fell in the range of 3.33 to 10 nM.

Regarding `CC(C)[C@@H]1NC(=O)[C@H](CCCCN)NC(=O)[C@@H](Cc2c[nH]c3ccccc23)NC(=O)[C@H](Cc2ccc(O)cc2)NC(=O)[C@H](CCSCC(=O)NCCCCCCNC(=O)CN2CCN3CCN4CCN(CC2)CC(=O)[O][Lu]([O]C(=O)C3)[O]C(=O)C4)N(C)C(=O)[C@H](C2CC2)NC1=O` [RB-0005247] (cyclo([Gly(cPr)][NMehCys](DOTA(Lu)NH(CH2)6NHCOCH2)Y[dW]KV)), the Ki lay within 3.33 to 10 nM.

With `CC(C)[C@@H]1NC(=O)[C@H](CCCCN)NC(=O)[C@@H](Cc2c[nH]c3ccccc23)NC(=O)[C@H](Cc2ccc(O)cc2)NC(=O)[C@H](CCSCC(=O)NCCCCCCNC(=O)CN2CCN3CCN4CCN(CC2)CC(=O)[O][Lu]([O]C(=O)C3)[O]C(=O)C4)N(C)C(=O)[C@H](CC(N)=O)NC1=O` [RB-0005253] (cyclo(KVN[NMehCys](DOTA(Lu)NH(CH2)6NHCOCH2)Y[dW])), the Ki was 3.33 to 10 nM.

Turning to `CC(C)[C@@H]1NC(=O)[C@H](CCCCN)NC(=O)[C@@H](Cc2c[nH]c3ccccc23)NC(=O)[C@H](Cc2ccc(O)cc2)NC(=O)[C@H](CCSCC(=O)NCCCCCCNC(=O)CN2CCN3CCN4CCN(CC2)CC(=O)[O][Lu]([O]C(=O)C3)[O]C(=O)C4)N(C)C(=O)[C@H](Cc2cnc[nH]2)NC1=O` [RB-0005255] (cyclo(H[NMehCys](DOTA(Lu)NH(CH2)6NHCOCH2)Y[dW]KV)), the Ki was 1 to 3.33 nM. With `CC(C)[C@@H]1NC(=O)[C@H](CCCCN)NC(=O)[C@@H](Cc2c[nH]c3ccccc23)NC(=O)[C@H](Cc2ccc(O)cc2)NC(=O)[C@H](CCSCC(=O)NCCCCCCNC(=O)CN2CCN3CCN4CCN(CC2)CC(=O)[O][Lu]([O]C(=O)C3)[O]C(=O)C4)N(C)C(=O)[C@H](C)NC1=O` [RB-0005266] (cyclo(A[NMehCys](DOTA(Lu)NH(CH2)6NHCOCH2)Y[dW]KV)), the Ki is below 1 nM. For `CC(C)[C@@H]1NC(=O)[C@H](CCCCN)NC(=O)[C@@H](Cc2c[nH]c3ccccc23)NC(=O)[C@H](Cc2ccc(O)cc2)NC(=O)[C@H](CCSCC(=O)NCCCCCCNC(=O)CN2CCN3CCN4CCN(CC2)CC(=O)[O][Lu]([O]C(=O)C3)[O]C(=O)C4)N(C)C(=O)[C@H](CO)NC1=O` [RB-0005270] (cyclo(KVS[NMehCys](DOTA(Lu)NH(CH2)6NHCOCH2)Y[dW])), the Ki is below 1 nM. The result for `C[C@@H](O)[C@@H]1NC(=O)[C@H](CCCCN)NC(=O)[C@@H](Cc2c[nH]c3ccccc23)NC(=O)[C@H](Cc2ccc(O)cc2)NC(=O)[C@H](CCSCC(=O)NCCOCCOCCNC(=O)CN2CCN3CCN4CCN(CC2)CC(=O)[O][Lu]([O]C(=O)C3)[O]C(=O)C4)N(C)C(=O)[C@H](Cc2ccccc2)NC1=O` [RB-0005272] reads below 1 nM; that for `C[C@@H](O)[C@@H]1NC(=O)[C@H](CCCCN)NC(=O)[C@@H](Cc2c[nH]c3ccccc23)NC(=O)[C@H](Cc2ccc(O)cc2)NC(=O)[C@H](CCSCC(=O)NCCCCCCNC(=O)CCC(C(=O)O)N2CCN3CCN4CCN(CC2)CC(=O)[O][Lu]([O]C(=O)C4)[O]C(=O)C3)N(C)C(=O)[C@H](Cc2ccccc2)NC1=O` (stereo partly shown) [RB-0005274], below 1 nM. For the compound `C[C@@H](O)[C@@H]1NC(=O)[C@H](CCCCN)NC(=O)[C@@H](Cc2c[nH]c3ccccc23)NC(=O)[C@H](Cc2ccc(O)cc2)NC(=O)[C@H](CCSCC(=O)N[C@H](CCCCNC(=O)CN2CCN3CCN4CCN(CC2)CC(=O)[O][Lu]([O]C(=O)C3)[O]C(=O)C4)C(=O)O)N(C)C(=O)[C@H](Cc2ccccc2)NC1=O` [RB-0005276], the Ki lay in the range of 1 to 3.33 nM.

For the compound `C[C@@H](O)[C@@H]1NC(=O)[C@H](CCCCN)NC(=O)[C@@H](Cc2c[nH]c3ccccc23)NC(=O)[C@H](Cc2ccc(O)cc2)NC(=O)[C@H](CCSCC(=O)NCCCC[C@@H](NC(=O)CN2CCN3CCN4CCN(CC2)CC(=O)[O][Lu]([O]C(=O)C3)[O]C(=O)C4)C(=O)O)N(C)C(=O)[C@H](Cc2ccccc2)NC1=O` [RB-0005278], the Ki fell in the range of 1 to 3.33 nM. As to `C[C@@H](O)[C@@H]1NC(=O)[C@H](CCCCN)NC(=O)[C@@H](Cc2c[nH]c3ccccc23)NC(=O)[C@H](Cc2ccc(O)cc2)NC(=O)[C@H](CCSCC(=O)NCCOCCOCCOCCNC(=O)CN2CCN3CCN4CCN(CC2)CC(=O)[O][Lu]([O]C(=O)C3)[O]C(=O)C4)N(C)C(=O)[C@H](Cc2ccccc2)NC1=O` [RB-0005284], the Ki was below 1 nM.
